Results published in ChEMBL document CHEMBL1153298, “Discovery of tetrahydro-cyclopenta[b]indole as selective LXRs modulator” (Bioorg Med Chem Lett, 2009).
Activity calls are given as the source filed them. The rule behind the calls is not given here.

Tests used:
[1] = molecular target: T1, Oxysterols receptor LXR-alpha (Homo sapiens, UniProt Q13133); assay: (§1) Transactivation of LXRalpha
T1 sequence (Q13133 whole entry): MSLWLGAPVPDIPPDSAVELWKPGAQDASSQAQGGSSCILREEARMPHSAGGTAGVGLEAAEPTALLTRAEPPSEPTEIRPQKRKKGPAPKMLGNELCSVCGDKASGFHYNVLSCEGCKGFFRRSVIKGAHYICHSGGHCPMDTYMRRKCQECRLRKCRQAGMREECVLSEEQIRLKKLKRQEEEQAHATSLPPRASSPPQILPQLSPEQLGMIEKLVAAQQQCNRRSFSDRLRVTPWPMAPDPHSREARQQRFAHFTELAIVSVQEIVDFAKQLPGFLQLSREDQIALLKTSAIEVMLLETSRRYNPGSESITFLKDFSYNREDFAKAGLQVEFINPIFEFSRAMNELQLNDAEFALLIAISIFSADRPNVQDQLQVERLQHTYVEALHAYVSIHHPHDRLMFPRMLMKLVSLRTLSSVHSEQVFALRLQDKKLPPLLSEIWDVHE

[2] = molecular target: T1, Oxysterols receptor LXR-alpha; assay: (§2) Binding affinity to LXRalpha
[3] = molecular target: T2, Oxysterols receptor LXR-alpha (Homo sapiens) (UniProt Q13133); assay: as §1
T2 sequence (whole entry): T1 sequence (Q13133 whole entry)

[4] = molecular target: T2, Oxysterols receptor LXR-alpha (Homo sapiens); assay: as §2
Mus musculus [5] = assay: Increase in HDL-cholesterol level in C57BL/6J mouse at 10 mg/kg/day, ip dosed for 5 days measured 2 hrs after last dose; format: functional; details: route intraperitoneal
[6] = Drug level in C57BL/6J mouse liver at 10 mg/kg/day, ip dosed for 5 days; format: ADME, organism-based; parameters: route intraperitoneal; details: read-out: Drug uptake
Mus musculus [7] = assay: Increase in liver triglyceride level in C57BL/6J mouse at 10 mg/kg/day, ip dosed for 5 days measured 2 hrs after last dose; format: functional; details: route intraperitoneal
[8] = molecular target: Voltage-gated inwardly rectifying potassium channel KCNH2 (Homo sapiens, UniProt Q12809); assay: Binding affinity to human ERG
Voltage-gated inwardly rectifying potassium channel KCNH2, sequence (Q12809 whole entry): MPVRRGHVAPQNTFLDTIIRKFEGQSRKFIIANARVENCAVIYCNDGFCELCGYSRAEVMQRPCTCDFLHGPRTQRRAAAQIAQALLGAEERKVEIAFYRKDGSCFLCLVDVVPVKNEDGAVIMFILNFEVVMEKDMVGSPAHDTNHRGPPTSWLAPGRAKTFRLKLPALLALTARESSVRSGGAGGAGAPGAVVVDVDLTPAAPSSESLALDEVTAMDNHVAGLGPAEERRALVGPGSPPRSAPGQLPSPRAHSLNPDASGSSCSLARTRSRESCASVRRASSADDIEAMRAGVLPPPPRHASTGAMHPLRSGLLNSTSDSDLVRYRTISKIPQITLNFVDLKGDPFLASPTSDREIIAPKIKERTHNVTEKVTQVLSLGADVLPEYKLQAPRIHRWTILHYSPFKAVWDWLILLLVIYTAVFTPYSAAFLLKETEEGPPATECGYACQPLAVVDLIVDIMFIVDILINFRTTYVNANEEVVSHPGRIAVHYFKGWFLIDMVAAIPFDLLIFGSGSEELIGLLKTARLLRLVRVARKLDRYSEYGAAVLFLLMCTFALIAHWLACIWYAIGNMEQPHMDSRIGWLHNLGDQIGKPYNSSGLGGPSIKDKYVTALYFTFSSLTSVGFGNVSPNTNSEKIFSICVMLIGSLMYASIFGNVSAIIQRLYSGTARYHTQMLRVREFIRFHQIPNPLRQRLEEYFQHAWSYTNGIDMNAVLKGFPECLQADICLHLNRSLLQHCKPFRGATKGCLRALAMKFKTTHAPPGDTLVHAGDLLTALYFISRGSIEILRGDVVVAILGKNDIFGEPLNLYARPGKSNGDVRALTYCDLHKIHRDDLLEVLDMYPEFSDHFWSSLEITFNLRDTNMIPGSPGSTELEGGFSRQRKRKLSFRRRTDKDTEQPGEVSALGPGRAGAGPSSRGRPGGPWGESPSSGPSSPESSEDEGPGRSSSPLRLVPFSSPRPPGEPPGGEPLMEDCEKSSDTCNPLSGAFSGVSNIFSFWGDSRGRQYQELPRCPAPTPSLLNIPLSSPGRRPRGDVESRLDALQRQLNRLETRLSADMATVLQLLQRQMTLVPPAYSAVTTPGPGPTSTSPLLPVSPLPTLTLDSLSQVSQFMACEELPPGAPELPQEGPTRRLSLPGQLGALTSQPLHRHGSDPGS

[9] = Plasma concentration in C57BL/6J mouse at 10 mg/kg/day, ip dosed for 5 days; format: ADME, organism-based; parameters: route intraperitoneal
[10] = Drug level in C57BL/6J mouse liver at 100 mg/kg/day, ip dosed for 5 days; format: ADME, organism-based; parameters: route intraperitoneal; details: read-out: Drug uptake
Mus musculus [11] = assay: Increase in liver triglyceride level in C57BL/6J mouse at 100 mg/kg/day, ip dosed for 5 days measured 2 hrs after last dose; format: functional; details: route intraperitoneal
[12] = Drug level in C57BL/6J mouse liver at 40 mg/kg/day, ip dosed for 5 days; format: ADME, organism-based; parameters: route intraperitoneal; details: read-out: Drug uptake
Mus musculus [13] = assay: Increase in plasma triglyceride level in C57BL/6J mouse at 100 mg/kg/day, ip dosed for 5 days measured 2 hrs after last dose; format: functional; details: route intraperitoneal
Mus musculus [14] = assay: Increase in HDL-cholesterol level in C57BL/6J mouse at 100 mg/kg/day, ip dosed for 5 days measured 2 hrs after last dose; format: functional; details: route intraperitoneal
Mus musculus [15] = assay: Increase in plasma triglyceride level in C57BL/6J mouse at 40 mg/kg/day, ip dosed for 5 days measured 2 hrs after last dose; format: functional; details: route intraperitoneal
Mus musculus [16] = assay: Increase in plasma triglyceride level in C57BL/6J mouse at 10 mg/kg/day, ip dosed for 5 days measured 2 hrs after last dose; format: functional; details: route intraperitoneal
Cytochrome P450 3A4 = Cytochrome P450 3A4 (Homo sapiens, UniProt P08684); assay: Binding affinity to CYP3A4; format: ADME
Cytochrome P450 3A4, sequence (P08684 whole entry): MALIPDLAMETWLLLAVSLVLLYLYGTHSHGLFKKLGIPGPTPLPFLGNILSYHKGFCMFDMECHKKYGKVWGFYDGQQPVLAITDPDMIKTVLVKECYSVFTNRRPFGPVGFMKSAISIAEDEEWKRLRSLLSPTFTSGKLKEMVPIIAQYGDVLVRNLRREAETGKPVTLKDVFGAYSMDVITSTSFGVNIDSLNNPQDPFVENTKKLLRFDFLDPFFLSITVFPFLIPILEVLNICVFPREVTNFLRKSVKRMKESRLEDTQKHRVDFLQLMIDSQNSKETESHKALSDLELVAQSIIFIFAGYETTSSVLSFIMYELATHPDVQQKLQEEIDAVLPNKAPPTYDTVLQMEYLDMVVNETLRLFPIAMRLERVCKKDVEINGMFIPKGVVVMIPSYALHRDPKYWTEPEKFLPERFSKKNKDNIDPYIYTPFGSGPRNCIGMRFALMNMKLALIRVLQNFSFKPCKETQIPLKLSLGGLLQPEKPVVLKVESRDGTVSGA

[17] = Plasma concentration in C57BL/6J mouse at 40 mg/kg/day, ip dosed for 5 days; format: ADME, organism-based; parameters: route intraperitoneal
Mus musculus [18] = assay: Increase in liver triglyceride level in C57BL/6J mouse at 40 mg/kg/day, ip dosed for 5 days measured 2 hrs after last dose; format: functional; details: route intraperitoneal
Mus musculus [19] = assay: Increase in HDL-cholesterol level in C57BL/6J mouse at 40 mg/kg/day, ip dosed for 5 days measured 2 hrs after last dose; format: functional; details: route intraperitoneal
[20] = Plasma concentration in C57BL/6J mouse at 100 mg/kg/day, ip dosed for 5 days; format: ADME, organism-based; parameters: route intraperitoneal

COC(=O)c1noc([C@](F)([C@H]2Cc3[nH]c4ccc(Cl)cc4c3C2)S(=O)(=O)c2ccccc2)n1 (racemic)
EC50 [1]: 1260 nM | IC50 [2]: 1630 nM

COC(=O)C(C)(C1CCCc2c([nH]c3ccc(Cl)cc23)C1)S(=O)(=O)c1ccccc1 (stereo not drawn)
Activity [3]: inactive | Activity [4]: inactive

Cc1nnc([C@](F)([C@H]2Cc3[nH]c4ccc(Cl)cc4c3C2)S(=O)(=O)c2ccccc2)o1
Activity (Mus musculus [5]): 27% | concentration at 120 h [6]: 1130 ng/g | Activity (Mus musculus [7]): 100% | Activity [8]: Not Active | concentration at 120 h [9]: 180 ng/mL | concentration at 120 h [10]: 13200 ng/g | Activity (Mus musculus [11]): 45% | concentration at 120 h [12]: 5490 ng/g | Activity (Mus musculus [13]): -2% | Activity (Mus musculus [14]): 36% | Activity (Mus musculus [15]): 9% | Activity (Mus musculus [16]): 9% | Activity (Cytochrome P450 3A4): Not Active | concentration at 120 h [17]: 682 ng/mL | Activity (Mus musculus [18]): -19% | Activity (Mus musculus [19]): 27% | concentration at 120 h [20]: 2150 ng/mL

O=S(=O)(c1ccccc1)N(CC(F)(F)F)c1ccc(C(O)(C(F)(F)F)C(F)(F)F)cc1 [T091317]
Activity (Mus musculus [5]): 23% | concentration at 120 h [6]: 7900 ng/g | Activity (Mus musculus [7]): 270% | concentration at 120 h [9]: 255 ng/mL | Activity (Mus musculus [16]): 20%

N#Cc1noc([C@](F)([C@H]2Cc3[nH]c4ccc(Cl)cc4c3C2)S(=O)(=O)c2ccccc2)n1 (racemic)
EC50 [1]: 160 nM | IC50 [2]: 100 nM
